US5945436A, “Pyridylmethyl nitriles, amides and thioamides useful as fungicides” (Uniroyal Chemical Company, Inc., priority 1997, dated 1999)

How the values were obtained:
Rhizoctonia solani = experiment: Fungal growth inhibition, treated disc on agar (RHI SOL); assay type: cell-based; conditions: disc dipped in 500 mg/l, 29° C.; for inhibition at 500 µg/mL: Rhizoctonia solani, read-out: Percent Growth Inhibition, RHI SOL
Excerpt: (§1) Filter paper discs, each 11 mm. in diameter, were dipped in each of the test solutions. The discs were allowed to air dry to drive off the acetone solvent. A number of untreated discs were used as controls.
(§2) The treated and untreated discs were then placed on agar plates and one of the following fungus species: Septoria nodorum (SEP NOD), Botrytis cinerea (BOT CIN), Fusarium oxysporum (FUS OXY), Pythium ultimum (PYT ULT), Rhizoctonia solani (RHI SOL), Colletotrichum gossypii (COL GOS), and Scierotinia minor (SCL MIN), was added to the center of each disc in the form of a culture plug with the fungus mat in contact with the paper of the test disc. Cercosporidium personatum (CER PER), was added to discs as a spore suspension (20,000 spores/ml) to the disc (two drops of spore suspension per disc), rather than a mycelial culture plug. The plates were then incubated at 29° C. in an oven.
(§3) With the exception of the discs containing Cercosporidium personatum, the discs were evaluated by first measuring the radius from the center of the fungus colony on the treated discs and on the untreated discs. Percent growth inhibition of each of the compounds tested was determined as a function of the difference between the radius of the fungus colony on the treated disc versus the radius of the fungus colony on the untreated disc.

Uromyces phaseoli = experiment: Bean rust fungus eradicant test (URO PHA); assay type: in vivo; conditions: pinto bean, eradicant spray 2 days after inoculation, 1,000 mg/l; for pest or weed control at 1000 µg/mL: Uromyces phaseoli, 216 h, read-out: Percent Reduction of Disease, URO PHA
Procedure, shortened: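 Seven-day-old pinto bean plants (Phaseolus vulgaris, primary leaf) were inoculated with 20,000 spores/ml, held 24 h at 99% humidity and 21° C., then sprayed two days post-inoculation with acetone/TWEEN 20 emulsions at 1,000 mg/l. After nine days in a 21° C. greenhouse, disease was scored as percent reduction versus unsprayed controls.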

Erysiphe graminis [1] = experiment: Powdery mildew of barley, systemic root uptake (BMS); assay type: in vivo; conditions: 45 ml of 250 mg/l, 8 days after inoculation
Procedure, shortened: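 Pot soil of barley (BMS) and cucumber (CMS) plants was drenched with 45 ml of a 250 mg/l acetone/Tween 20 aqueous emulsion, with untreated plants as controls. Disease was scored on a rating scale that included intermediate grades.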

Erysiphe polygoni = experiment: Powdery mildew on pinto bean, foliar application (ERY POL); assay type: in vivo; conditions: similar procedure as barley (1,000 mg/l); for pest or weed control at 1000 µg/mL: Erysiphe polygoni, read-out: Percent Reduction of Disease, ERY POL
Procedure, shortened: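 Pinto bean plants sprayed with compound emulsion (acetone or inert solvent, TWEEN 20, water) at 1,000 mg/l, or left unsprayed, dried, then inoculated with Erysiphe polygoni spores in a 21° C greenhouse. Disease scored; percent control computed against untreated controls.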

Fusarium oxysporum = experiment: Fungal growth inhibition, treated disc on agar (FUS OXY); assay type: cell-based; conditions: disc dipped in 500 mg/l, 29° C.; for inhibition at 500 µg/mL: Fusarium oxysporum, read-out: Percent Growth Inhibition, FUS OXY
Erysiphe graminis [2] = experiment: Powdery mildew in barley, foliar application (ERY GRA); assay type: in vivo; conditions: foliar, 1,000 mg/l, 8 days after inoculation; for pest or weed control at 1000 µg/mL: Blumeria graminis, foliar, 192 h, read-out: Percent Reduction of Disease, ERY GRA
Procedure, shortened: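 'Robust' barley plants sprayed with acetone/TWEEN 20 aqueous emulsion at 1,000 mg/l, dried, then kept at 21° C in a greenhouse. Inoculated by distributing Erysiphe graminis spores from infected plants. Percent control computed from disease scores vs unsprayed control pots.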

Pythium ultimum = experiment: Fungal growth inhibition, treated disc on agar (PYT ULT); assay type: cell-based; conditions: disc dipped in 500 mg/l, 29° C.; for inhibition at 500 µg/mL: Globisporangium ultimum, read-out: Percent Growth Inhibition, PYT ULT
Excerpt: as §1, §2, §3

Row | SMILES | inhibition at 500 µg/mL (Rhizoctonia solani) [%] | pest or weed control at 1000 µg/mL (Uromyces phaseoli) [%] | Percent Reduction of Disease, BMS (Erysiphe graminis [1]) [%] | pest or weed control at 1000 µg/mL (Erysiphe polygoni) [%] | inhibition at 500 µg/mL (Fusarium oxysporum) [%] | pest or weed control at 1000 µg/mL (Erysiphe graminis [2]) [%] | inhibition at 500 µg/mL (Pythium ultimum) [%] | Percent Growth Inhibition, RHI SOL (Rhizoctonia solani) [%] | Percent Reduction of Disease, URO PHA (Uromyces phaseoli) [%] | Percent Reduction of Disease, ERY POL (Erysiphe polygoni) [%] | Percent Growth Inhibition, FUS OXY (Fusarium oxysporum) [%] | Percent Reduction of Disease, ERY GRA (Erysiphe graminis [2]) [%] | Percent Growth Inhibition, PYT ULT (Pythium ultimum) [%]
1 | CCCCC(C#N)(CCCc1ccccc1OC)c1cccnc1 (stereo not shown) [Compound 63] | 5 | 0 | 0 | 100 | 20 | 0 | 10 |  |  |  |  |  | 
2 | N#CC(CCCF)(CCc1ccc(F)cc1)c1cccnc1 (stereo not shown) [Compound 64] | 20 | 70 | 20 | 100 | 100 | 0 | 0 |  |  |  |  |  | 
3 | C=C(Cl)CC(C#N)(CCc1ccc(F)cc1)c1cccnc1 (stereo not shown) [Compound 65] | 30 | 50 | 0 | 100 | 100 | 85 | 100 |  |  |  |  |  | 
4 | N#CC(CCCF)(CCc1ccccc1F)c1cccnc1 (stereo not shown) [Compound 66] | 45 | 70 | 100 | 100 | 100 | 50 | 0 |  |  |  |  |  | 
5 | C=CCC(C#N)(CCc1ccccc1F)c1cccnc1 (stereo not shown) [Compound 67] | 40 | 50 | 100 | 100 | 100 | 100 | 20 |  |  |  |  |  | 
6 | CCCCC(C#N)(CCc1ccc(OCCF)cc1)c1cccnc1 (stereo not shown) [Compound 68] | 45 | 50 | 0 | 100 | 100 | 75 | 40 |  |  |  |  |  | 
7 | CCCCC(C#N)(CCc1ccc(OCCC)cc1)c1cccnc1 (stereo not shown) [Compound 69] |  |  | 0 |  |  |  |  | 5 | 0 | 100 | 30 | 50 | 35
8 | C=CCC(C#N)(CCCc1ccccc1OC)c1cccnc1 (stereo not shown) [Compound 70] | 28 | 17 | 40 | 92 | 25 | 92 | 49 |  |  |  |  |  | 
9 | CCCC(C#N)(CCCc1ccccc1OC)c1cccnc1 (stereo not shown) [Compound 71] | 6 | 92 | 100 | 100 | 72 | 100 | 60 |  |  |  |  |  | 
10 | CCCC(C#N)(CCc1ccccc1C(F)(F)F)c1cccnc1 (stereo not shown) [Compound 72] | 38 | 0 | 90 | 92 | 16 | 100 | 71 |  |  |  |  |  | 
11 | CCCCC(C#N)(CCc1ccccc1C(F)(F)F)c1cccnc1 (stereo not shown) [Compound 73] | 34 | 100 | 100 | 100 | 75 | 100 | 69 |  |  |  |  |  | 
12 | CCCCC(C#N)(CCc1ccccc1F)c1cccnc1 (stereo not shown) [Compound 74] | 100 | 92 | 100 | 100 | 3 | 100 | 36 |  |  |  |  |  | 
13 | CCCC(C#N)(CCc1ccccc1F)c1cccnc1 (stereo not shown) [Compound 75] | 100 | 83 | 100 | 100 | 100 | 92 | 1 |  |  |  |  |  | 
14 | CCCCC(C#N)(CCCc1ccc(OC)cc1)c1cccnc1 (stereo not shown) [Compound 76] | 6 | 67 | 0 | 100 | 50 | 100 | 0 |  |  |  |  |  | 
15 | N#CC(CCc1ccc(F)cc1)(CCC(F)(F)F)c1cccnc1 (stereo not shown) [Compound 77] | 40 | 90 | 100 | 100 | 55 | 90 | 30 |  |  |  |  |  | 
16 | N#CC(CCCC(F)(F)F)(CCc1ccc(F)cc1)c1cccnc1 (stereo not shown) [Compound 78] | 0 | 83 | 100 | 92 | 40 | 100 | 0 |  |  |  |  |  | 
17 | Cc1ccc(CCC(C#N)(CCCC(F)(F)F)c2cccnc2)cc1 (stereo not shown) [Compound 79] | 35 | 0 | 92 | 100 | 46 | 100 | 0 |  |  |  |  |  | 
18 | Cc1ccc(CCC(C#N)(CCC(F)(F)F)c2cccnc2)cc1 (stereo not shown) [Compound 80] | 62 | 83 | 100 | 100 | 24 | 100 | 7 |  |  |  |  |  | 
19 | Cc1ccc(CCC(C#N)(CCCF)c2cccnc2)cc1 (stereo not shown) [Compound 81] | 5 | 90 | 0 | 100 | 20 | 70 | 20 |  |  |  |  |  | 
